In patent US20150011466A1, “APJ Receptor Compounds” (priority 2012, published 2015):
Where two headings read alike, the source gives them in different places. Where a SMILES comes first, the peptide text is derived from it. [ ]: non-standard residue; d: D form. The star is where a group is joined. Palmitoyl = CCCCCCCCCCCCCCCC(=O)*

Key:
APJ receptor = biological target: T1, APJ receptor (Homo sapiens, UniProt P35414); assay: HTRF cAMP assay, inhibition of NKH477 stimulated cAMP in Human TRex cells expressing APJ upon doxycycline induction (APJ-hTREX); type: cell-based; conditions: for percent intrinsic activity at 0.3 µM: read-out: % IA (@ 300 nM); for Ranking: class combining EC50 and % histamine
T1 construct: expressed in transfected cells; host or cells: Human TRex cells (doxycycline-inducible)
T1 sequence (P35414 1-380): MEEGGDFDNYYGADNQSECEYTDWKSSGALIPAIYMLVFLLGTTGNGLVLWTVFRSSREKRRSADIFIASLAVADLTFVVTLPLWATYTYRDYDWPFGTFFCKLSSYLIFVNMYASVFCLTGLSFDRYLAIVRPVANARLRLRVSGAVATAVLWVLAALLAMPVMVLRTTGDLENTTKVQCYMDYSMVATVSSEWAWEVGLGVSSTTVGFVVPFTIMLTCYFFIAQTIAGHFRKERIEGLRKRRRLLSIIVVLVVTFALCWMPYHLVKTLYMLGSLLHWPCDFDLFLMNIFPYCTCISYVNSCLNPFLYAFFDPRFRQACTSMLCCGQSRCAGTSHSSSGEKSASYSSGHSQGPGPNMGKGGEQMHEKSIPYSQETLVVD
Text: HTRF (homogeneous time resolved fluorescence) is a technology developed by Cisbio Bioassays based on TR-FRET (time-resolved fluorescence resonance energy transfer). Cisbio Bioassays has developed a wide selection of HTRF-based assays compatible with whole cells, thereby enabling functional assays to run under more physiological conditions. The IP-One assays are competitive immunoassays using cryptate-labeled anti-IP1 monoclonal antibody and d2-labeled IP1. IP1 is a relatively stable downstream metabolite of IP3, and accumulates in cells following Gq receptor activation.
cAMP kits based on a competitive immunoassay using cryptate-labeled anti-cAMP antibody and d2-labeled cAMP were used to assay the effects of APJ compounds of the present invention. […] Cells are treated with […] doxycycline and seeded in all white 96 well plates @ 40 k/well overnight.

| SMILES | Histimine (% vs. 48/40) (Histimine (% vs. 48/40)) | percent intrinsic activity at 0.3 µM (APJ receptor) | EC50 (APJ receptor) | Ranking (APJ receptor) | EC50 (APJ receptor; inhibition of NKH477 stimulated cAMP, APJ-hTREX cells, read-out: APJ-hTREX EC50) |
| --- | --- | --- | --- | --- | --- |
| CCCCCCCCCCCCCCCC(=O)N[C@H](C(=O)N[C@H](C(=O)N[C@@H](Cc1ccccc1)C(=O)N[C@@H](CCCNC(=N)N)C(=O)N[C@@H](CO)C(=O)N[C@@H](CO)C(=O)N[C@@H](CCC(=O)O)C(=O)N[C@H](CCCCN)C(=O)N[C@@H](CCCNC(=N)N)C(=O)N[C@@H](CCCNC(=N)N)C(=O)N[C@@H](CO)C(=O)N[C@@H](C)C(=O)N[C@@H](Cc1c[nH]cn1)C(=O)N[C@H](C(=O)N[C@@H](Cc1ccccc1)C(=O)N[C@H](C(N)=O)[C@@H](C)CC)[C@@H](C)CC)C(C)C)[C@@H](C)O [Compound 16] (Palmitoyl-TVFRSSE[dK]RRSAHIFI-NH2) | 107% | 63% |  |  |  |
| CCCCCCCCCCCCCCCC(=O)N[C@H](C(=O)N[C@H](C(=O)N[C@@H](Cc1ccccc1)C(=O)N[C@@H](CCCNC(=N)N)C(=O)N[C@@H](CO)C(=O)N[C@@H](CO)C(=O)N[C@@H](CCC(=O)O)C(=O)N[C@H](CCCCN)C(=O)N[C@@H](CCCNC(=N)N)C(=O)N[C@@H](CCCNC(=N)N)C(=O)N[C@@H](CO)C(=O)N[C@@H](C)C(=O)N[C@@H](CC(=O)O)C(=O)N[C@@H](Cc1c[nH]cn1)C(=O)N[C@@H](Cc1ccccc1)C(=O)N[C@H](C(N)=O)[C@@H](C)CC)C(C)C)[C@@H](C)O [Compound 17] (Palmitoyl-TVFRSSE[dK]RRSADHFI-NH2) | 113% | 83% |  |  |  |
| CCCCCCCCCCCCCCCC(=O)N[C@H](C(=O)N[C@H](C(=O)N[C@@H](Cc1ccccc1)C(=O)N[C@@H](CCCNC(=N)N)C(=O)N[C@@H](CO)C(=O)N[C@@H](CO)C(=O)N[C@@H](CCC(=O)O)C(=O)N[C@H](CCCCN)C(=O)N[C@@H](CCCNC(=N)N)C(=O)N[C@@H](CCCNC(=N)N)C(=O)N[C@@H](CO)C(=O)N[C@@H](C)C(=O)N[C@@H](CC(=O)O)C(=O)N[C@H](C(=O)N[C@@H](Cc1c[nH]cn1)C(=O)N[C@H](C(N)=O)[C@@H](C)CC)[C@@H](C)CC)C(C)C)[C@@H](C)O [Compound 18] (Palmitoyl-TVFRSSE[dK]RRSADIHI-NH2) | 62% | 56% |  |  |  |
| CCCCCCCCCCCCCCCC(=O)N[C@H](C(=O)N[C@H](C(=O)N[C@@H](Cc1ccccc1)C(=O)N[C@@H](CCCNC(=N)N)C(=O)N[C@@H](CO)C(=O)N[C@@H](CO)C(=O)N[C@@H](CCC(=O)O)C(=O)N[C@H](CCCCN)C(=O)N[C@@H](CCCNC(=N)N)C(=O)N[C@@H](CCCNC(=N)N)C(=O)N[C@@H](CO)C(=O)N[C@@H](C)C(=O)N[C@@H](CC(=O)O)C(=O)N[C@H](C(=O)N[C@@H](Cc1ccccc1)C(=O)N[C@@H](Cc1c[nH]cn1)C(N)=O)[C@@H](C)CC)C(C)C)[C@@H](C)O [Compound 19] (Palmitoyl-TVFRSSE[dK]RRSADIFH-NH2) | 104% | 53% |  |  |  |
| CCCCCCCCCCCCCCCC(=O)N[C@H](C(=O)N[C@@H](CCC(N)=O)C(=O)N[C@@H](Cc1ccccc1)C(=O)N[C@@H](CCCNC(=N)N)C(=O)N[C@@H](CO)C(=O)N[C@@H](CO)C(=O)N[C@@H](CCC(=O)O)C(=O)N[C@H](CCCCN)C(=O)N[C@@H](CCCNC(=N)N)C(=O)N[C@@H](CCCNC(=N)N)C(=O)N[C@@H](CO)C(=O)N[C@@H](C)C(=O)N[C@@H](CC(=O)O)C(=O)N[C@H](C(=O)N[C@@H](Cc1ccccc1)C(=O)N[C@H](C(N)=O)[C@@H](C)CC)[C@@H](C)CC)[C@@H](C)O [Compound 21] (Palmitoyl-TQFRSSE[dK]RRSADIFI-NH2; C-terminus assumed) | 39% | 72% | 41 nM | *** (EC50<100 nM and % histamine>35%) |  |
| CCCCCCCCCCCCCCCC(=O)N[C@H](C(=O)N[C@H](C(=O)N[C@@H](Cc1ccccc1)C(=O)N[C@@H](CCCNC(=N)N)C(=O)N[C@@H](CO)C(=O)N[C@@H](CO)C(=O)N[C@@H](CCC(=O)O)C(=O)N[C@H](CCCCN)C(=O)N[C@@H](CCC(N)=O)C(=O)N[C@@H](CCCNC(=N)N)C(=O)N[C@@H](CO)C(=O)N[C@@H](C)C(=O)N[C@@H](CC(=O)O)C(=O)N[C@H](C(=O)N[C@@H](Cc1ccccc1)C(=O)N[C@H](C(N)=O)[C@@H](C)CC)[C@@H](C)CC)C(C)C)[C@@H](C)O [Compound 26] (Palmitoyl-TVFRSSE[dK]QRSADIFI-NH2; C-terminus assumed) | −1% | 6% | 112 nM | **** (EC50 101-500 nM and % histamine<35%) |  |
| CCCCCCCCCCCCCCCC(=O)N[C@H](C(=O)N[C@H](C(=O)N[C@@H](Cc1ccccc1)C(=O)N[C@@H](CCCNC(=N)N)C(=O)N[C@@H](CO)C(=O)N[C@@H](CO)C(=O)N[C@@H](CCC(=O)O)C(=O)N[C@H](CCCCN)C(=O)N[C@@H](CCCNC(=N)N)C(=O)N[C@@H](CCC(N)=O)C(=O)N[C@@H](CO)C(=O)N[C@@H](C)C(=O)N[C@@H](CC(=O)O)C(=O)N[C@H](C(=O)N[C@@H](Cc1ccccc1)C(=O)N[C@H](C(N)=O)[C@@H](C)CC)[C@@H](C)CC)C(C)C)[C@@H](C)O [Compound 27] (Palmitoyl-TVFRSSE[dK]RQSADIFI-NH2) | 4% | 7% |  |  |  |
| CCCCCCCCCCCCCCCC(=O)N[C@H](C(=O)N[C@H](C(=O)N[C@@H](Cc1ccccc1)C(=O)N[C@@H](CCCNC(=N)N)C(=O)N[C@@H](CO)C(=O)N[C@@H](CO)C(=O)N[C@@H](CCC(=O)O)C(=O)N[C@H](CCCCN)C(=O)N[C@@H](CCCNC(=N)N)C(=O)N[C@@H](CCCNC(=N)N)C(=O)N[C@@H](CO)C(=O)N[C@@H](CCC(N)=O)C(=O)N[C@@H](CC(=O)O)C(=O)N[C@H](C(=O)N[C@@H](Cc1ccccc1)C(=O)N[C@H](C(N)=O)[C@@H](C)CC)[C@@H](C)CC)C(C)C)[C@@H](C)O [Compound 28] (Palmitoyl-TVFRSSE[dK]RRSQDIFI-NH2) | 16% | 8% |  |  |  |
| CCCCCCCCCCCCCCCC(=O)N[C@H](C(=O)N[C@H](C(=O)N[C@@H](Cc1ccccc1)C(=O)N[C@@H](CCCNC(=N)N)C(=O)N[C@@H](CO)C(=O)N[C@@H](CO)C(=O)N[C@@H](CCC(=O)O)C(=O)N[C@H](CCCCN)C(=O)N[C@@H](CCCNC(=N)N)C(=O)N[C@@H](CCCNC(=N)N)C(=O)N[C@@H](CO)C(=O)N[C@@H](C)C(=O)N[C@@H](CCC(N)=O)C(=O)N[C@H](C(=O)N[C@@H](Cc1ccccc1)C(=O)N[C@H](C(N)=O)[C@@H](C)CC)[C@@H](C)CC)C(C)C)[C@@H](C)O [Compound 29] (Palmitoyl-TVFRSSE[dK]RRSAQIFI-NH2) | 92% | 9% |  |  |  |
| CCCCCCCCCCCCCCCC(=O)N[C@H](C(=O)N[C@H](C(=O)N[C@@H](Cc1ccccc1)C(=O)N[C@@H](CCCNC(=N)N)C(=O)N[C@@H](CO)C(=O)N[C@@H](CO)C(=O)N[C@@H](CCC(=O)O)C(=O)N[C@H](CCCCN)C(=O)N[C@@H](CCCNC(=N)N)C(=O)N[C@@H](CCCNC(=N)N)C(=O)N[C@@H](CO)C(=O)N[C@@H](C)C(=O)N[C@@H](CC(=O)O)C(=O)N[C@@H](CCC(N)=O)C(=O)N[C@@H](Cc1ccccc1)C(=O)N[C@H](C(N)=O)[C@@H](C)CC)C(C)C)[C@@H](C)O [Compound 30] (Palmitoyl-TVFRSSE[dK]RRSADQFI-NH2; C-terminus assumed) | 63% | 98% |  | *** (EC50<100 nM and % histamine>35%) | 84.6 nM |
| CCCCCCCCCCCCCCCC(=O)N[C@H](C(=O)N[C@H](C(=O)N[C@@H](Cc1ccccc1)C(=O)N[C@@H](CCCNC(=N)N)C(=O)N[C@@H](CO)C(=O)N[C@@H](CO)C(=O)N[C@@H](CCC(=O)O)C(=O)N[C@H](CCCCN)C(=O)N[C@@H](CCCNC(=N)N)C(=O)N[C@@H](CCCNC(=N)N)C(=O)N[C@@H](CO)C(=O)N[C@@H](C)C(=O)N[C@@H](CC(=O)O)C(=O)N[C@H](C(=O)N[C@@H](CCC(N)=O)C(=O)N[C@H](C(N)=O)[C@@H](C)CC)[C@@H](C)CC)C(C)C)[C@@H](C)O [Compound 31] (Palmitoyl-TVFRSSE[dK]RRSADIQI-NH2) | 68% | 67% |  |  |  |
| CCCCCCCCCCCCCCCC(=O)N[C@H](C(=O)N[C@H](C(=O)N[C@@H](Cc1ccccc1)C(=O)N[C@@H](CCCNC(=N)N)C(=O)N[C@@H](CO)C(=O)N[C@@H](CO)C(=O)N[C@@H](CCC(=O)O)C(=O)N[C@H](CCCCN)C(=O)N[C@@H](CCCNC(=N)N)C(=O)N[C@@H](CCCNC(=N)N)C(=O)N[C@@H](CO)C(=O)N[C@@H](C)C(=O)N[C@@H](CC(=O)O)C(=O)N[C@H](C(=O)N[C@@H](Cc1ccccc1)C(=O)N[C@@H](CCC(N)=O)C(N)=O)[C@@H](C)CC)C(C)C)[C@@H](C)O [Compound 32] (Palmitoyl-TVFRSSE[dK]RRSADIFQ-NH2) | 69% | 55% |  |  |  |
